Reference: patent US20240150286A1, “PEROXISOME PROLIFERATOR-ACTIVATED RECEPTOR GAMMA (PPARy) LIGANDS AND METHODS OF USE AS TREATMENTS FOR INSULIN RESISTANCE, OBESITY, FATTY LIVER DISEASE, AND TYPE 2 DIABETES” (The Board of Regents of the University of Oklahoma, priority 2022, published 2024)

Experiments:
human PPARγ2 = target: T1, human PPARγ2 (Homo sapiens, UniProt P37231); assay: PPARγ transactivation reporter assay (3×PPRE-luc) in HEK-293 cells; type: cell-based; settings: HEK293, PPARγ2 + 3×PPRE-luc, relative to Rosi
T1 construct: host or cells: HEK-293
T1 sequence (P37231 1-505): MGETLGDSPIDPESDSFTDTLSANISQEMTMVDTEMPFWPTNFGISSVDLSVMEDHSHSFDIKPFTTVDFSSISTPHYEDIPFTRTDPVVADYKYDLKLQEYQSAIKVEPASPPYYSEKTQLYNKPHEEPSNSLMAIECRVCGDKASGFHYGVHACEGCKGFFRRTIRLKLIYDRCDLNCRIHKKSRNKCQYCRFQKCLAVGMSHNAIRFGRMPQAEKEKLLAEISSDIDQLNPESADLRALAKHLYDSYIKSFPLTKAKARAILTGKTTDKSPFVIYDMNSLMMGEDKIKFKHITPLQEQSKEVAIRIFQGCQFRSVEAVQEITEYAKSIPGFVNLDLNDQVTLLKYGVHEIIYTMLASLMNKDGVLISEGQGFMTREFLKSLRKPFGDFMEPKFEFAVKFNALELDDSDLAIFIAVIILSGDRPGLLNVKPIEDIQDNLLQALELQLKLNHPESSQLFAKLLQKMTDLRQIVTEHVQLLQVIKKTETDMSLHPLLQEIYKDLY
Procedure: HEK-293 cells were seeded overnight, co-transfected with plasmids expressing human PPARγ2 and 3×PPRE-luc (both from Addgene) followed by incubation for 16 h, and then re-seeded in a 384-well plate and incubated for 24 h. Compounds were added and then incubated another 24 h. Luciferase activity was analyzed in each well using Bright-Glo Luciferase kit (Promega).

PPARγ = target: T2, PPARγ (Homo sapiens, UniProt P37231); settings: cited from earlier work
T2 sequence (P37231 1-505): T1 sequence (P37231 1-505)

[1] = tested on: PPARγ S273 phosphorylation; assay: PPARγ S273 phosphorylation and phosphorylation-dependent genes in 3T3-L1 differentiated adipocytes; type: cell-based, mouse; settings: 3T3-L1 differentiated adipocytes, TNFα 10 ng/ml 1 h, compounds at 10 μM, Western blot
Procedure: (§1) Total RNA (2 μg) was isolated from tissues or cells using TRIzol reagents (Life Technologies) and reverse transcribed using oligo d(T) primers (New England Biosystems) and SuperScript IV reverse transcription kit (Applied Biosystems). qPCR was performed in a CFX96 Touch Real-Time PCR detection system using SYBR Green mix (Applied Biosystems). The amplification program was as follows: initial denaturation at 95° C. for 15 min, followed by 40 cycles of 95° C. for 15 s, 60° C. for 1 min, and 40° C. for 30 s. Relative mRNA expression was determined by the ΔΔCt method normalized to TBP mRNA.

[2] = tested on: diet-induced obesity (DIO) mice; assay: TZD-associated side effects in DIO mice (PCV, heart weight, cardiac and bone genes); type: in vivo, mouse
Procedure: C57BL/6J male mice were obtained from Jackson laboratory (Bar Harbor, ME) and maintained on a 12 h light (6:00 AM to 6:00 PM)—12 h dark (6:00 PM to 6:00 AM) cycle at an ambient temperature of 22±1° C. All animals had access to diet and water ad libitum. All procedures involving animals were approved by the Institutional Animal Care and Use Committee of the University of Oklahoma Health Science Center. All experiments were performed with age-matched male mice. The mice were fed a high-fat diet (HFD) (60% kcal fat, Bio-Serv, NJ, USA) starting from the age of 6 weeks until study end. […] Food intake was determined manually by measuring the amount of input food subtracting the amount of the food remaining in the food hopper and the crumbs on the bedding of the cage each day for three days during the 4th week of the treatment. Packed cell volume (PCV) was measured with blood drawn from tail on a LW Scientific E8 centrifuge (LW Scientific, Lawrenceville, Georgia, USA) microhematocrit centrifuge at the end of study. For all other measurements, the blood was drawn at the time of euthanization.
as §1

Row | Structure (SMILES) | 3×PPRE-luc reporter activity as % of potency of Rosi (human PPARγ2) | PPARγ binding affinity (literature) (PPARγ) | PPARγ phosphorylation at S273 (literature) (PPARγ) | S273 phosphorylation of PPARγ [1] | mRNA levels of bone formation genes (Bglap, SPP1, ColA1) ([2]; 4-week treatment) | heart weight ([2]; relative to vehicle) | mRNA levels of Myh7 and Nppb in heart ([2]; vs vehicle)
1 | Cc1c(C)n(Cc2ccc(-c3ccccc3C(=O)O)cc2)c2ccc(C(=O)NCc3cccnc3)cc12 [UHC1, 4′ -((2,3-Dimethyl-5-(pyridine-3-ylmethylcarboamyl)-1H-indol-1-yl)methyl)biphenyl-2-carboxylic acid, reference compound] | approximately 45% | poor | inhibit | significantly inhibited | – | – | –
2 | CN(CCOc1ccc(CC2SC(=O)NC2=O)cc1)c1ccccn1 (stereo not shown) [Rosi, rosiglitazone, reference compound] | – | – | – | – | decreased their expression significantly | significant increase | increased
